Experimental findings from patent publication US20260068882A1, “ARTHROPOD CONTROLLING COMPOSITION” (Firmenich SA, priority 2019, published 2026) are described below.

Each structure is given as a SMILES string. Where a name gives a salt, the structure may show the parent alone.

One assay concerns Aedes aegypti. As to the kind of experiment: In vitro Warm Body assay, mosquitoes landing on treated warm body. The following applies: for % of mosquitoes' repellency: normalised to landing with 100% ethanol. The assay is classed as in vivo. A digest of the protocol: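 Adapted Warm Body assay with host-seeking, non-blood-fed, sugar-fed A. aegypti Rockefeller females aged 5–10 days (10–12 days in one set); cages held 30 (or 25) females at 150 lux. Landings were counted automatically. Doses in ethanol were 0.0016%, 0.04% and 1% in triplicate, or a single replicate across 0.0016–1%.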

A further assay deals with Ixodes ricinus. In words: In vitro Warm Plate Assay for ticks. The assay is classed as in vivo. The following applies: for percentage of ticks affected overtime: 20% (w/w) in ethanol. A digest of the protocol:
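Repellency against last-stage Ixodes ricinus nymphs in an in vitro warm plate assay, compounds diluted in ethanol at 0.4 and 10 mg/mL, 0.0016% to 1%, or 20% (w/w). Ticks walking down or falling from the treated plate scored as affected, walking up as unaffected; groups of 12 ticks, n=2-5.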

Take `CCCCN(CCC(=O)OCC)C(C)=O` [IR3535, 3-[N-n-butyl-N-acetyl]aminopropionic acid ethylester, reference compound]: the “% of mosquitoes' repellency” value in the assay with Aedes aegypti (0.00032% concentration) turned out to be 8%; in the assay with Aedes aegypti (0.0016% concentration), 0%; in the assay on Aedes aegypti (0.0080% concentration) it was 0%; in the assay on Aedes aegypti (0.040% concentration), 69%; with Aedes aegypti (0.20% concentration) it was 78%; in the assay on Aedes aegypti (1% concentration) it was 89%. For the same compound, the “mean ± SD numbers of mosquitoes landed on the Warm Body” value with Aedes aegypti (0.0016% dilution (Table 4)) was determined as 70.0 ± 14.3; with Aedes aegypti (0.04% dilution (Table 4)), 20.7 ± 2.1; in the assay on Aedes aegypti (1% dilution (Table 4)), 7.7 ± 1.6. In addition, the “number of mosquitoes landed on the Warm Body” value in the assay with Aedes aegypti (0.0016% in ethanol (Table 7, one replicate)) came to 70; in the assay with Aedes aegypti (0.008% in ethanol (Table 7, one replicate)), 63; in the assay with Aedes aegypti (0.0119% in ethanol (Table 7, one replicate)) it was 22; with Aedes aegypti (0.04% in ethanol (Table 7, one replicate)), 21; with Aedes aegypti (0.0598% in ethanol (Table 7, one replicate)), 6; with Aedes aegypti (0.2% in ethanol (Table 7, one replicate)), 9. In addition, the “number of mosquitoes landed on the Warm Body” value is 0 in the assay on Aedes aegypti (0.447% in ethanol (Table 7, one replicate)) and 8 in the assay with Aedes aegypti (1% in ethanol (Table 7, one replicate)). Also, the “repulsion (in words)” value in the assay on Aedes aegypti (concentrations lower than 0.04%) is recorded as “only low repulsion”. Also, the “percentage of ticks affected on the Warm Plate” value with Ixodes ricinus (0.0016% in ethanol (Table 12)) was 0%; in the assay on Ixodes ricinus (0.0053% in ethanol (Table 12)), 0%; with Ixodes ricinus (0.008% in ethanol (Table 12)), 8%; in the assay on Ixodes ricinus (0.0119% in ethanol (Table 12)) it was 0%; in the assay with Ixodes ricinus (0.0178% in ethanol (Table 12)), 0%; with Ixodes ricinus (0.0267% in ethanol (Table 12)) it was 0%. For the same compound, the “percentage of ticks affected on the Warm Plate” value amounted to 33% in the assay on Ixodes ricinus (0.04% in ethanol (Table 12)); 12% in the assay with Ixodes ricinus (0.0598% in ethanol (Table 12)); 46% in the assay on Ixodes ricinus (0.089% in ethanol (Table 12)); 57% with Ixodes ricinus (0.2% in ethanol (Table 12)); 53% with Ixodes ricinus (0.447% in ethanol (Table 12)); 56% in the assay with Ixodes ricinus (1% in ethanol (Table 12)). In addition, the “percentage of ticks affected overtime” value in the assay on Ixodes ricinus (0.25 h post-application) stood at 83%; with Ixodes ricinus (0.5 h post-application), 40%; with Ixodes ricinus (1 h post-application), 83%; with Ixodes ricinus (2 h post-application), 58%; with Ixodes ricinus (4 h post-application), 58%; with Ixodes ricinus (6 h post-application), 0%. In the assay with Ixodes ricinus (dose of 0.89%), this compound showed a ticks affected of 46%.
Regarding `Cc1ccc2c(c1)CC(C)(COC=O)C2` (centres unmarked) [(2,5-dimethyl-2-indanyl)methyl formate], the pest or weed control at 0.0016 % was 4 to 29% with Aedes aegypti (Aedes aegypti, read-out: decrease of landings) and 0% in the assay with Ixodes ricinus (Ixodes ricinus, 0.0016% (Table 11), read-out: percentage of ticks affected on the Warm Plate). For the same compound, in the assay with Ixodes ricinus (Ixodes ricinus, 0.04% (Table 11), read-out: percentage of ticks affected on the Warm Plate), the pest or weed control at 0.04 % stood at 7%. Further, the pest or weed control at 1 % in the assay with Ixodes ricinus (Ixodes ricinus, 1% (Table 11), read-out: percentage of ticks affected on the Warm Plate) was found to be 85%.
